Target: Glucagon-like peptide 1 receptor (Homo sapiens, UniProt P43220)
Assay: GLP-1R agonist cAMP stimulation Assay
Description: cAMP Detection Kit, Cisbio (Cat #62AM4PEJ).

Glucagon-like peptide 1 receptor, sequence (P43220 whole entry): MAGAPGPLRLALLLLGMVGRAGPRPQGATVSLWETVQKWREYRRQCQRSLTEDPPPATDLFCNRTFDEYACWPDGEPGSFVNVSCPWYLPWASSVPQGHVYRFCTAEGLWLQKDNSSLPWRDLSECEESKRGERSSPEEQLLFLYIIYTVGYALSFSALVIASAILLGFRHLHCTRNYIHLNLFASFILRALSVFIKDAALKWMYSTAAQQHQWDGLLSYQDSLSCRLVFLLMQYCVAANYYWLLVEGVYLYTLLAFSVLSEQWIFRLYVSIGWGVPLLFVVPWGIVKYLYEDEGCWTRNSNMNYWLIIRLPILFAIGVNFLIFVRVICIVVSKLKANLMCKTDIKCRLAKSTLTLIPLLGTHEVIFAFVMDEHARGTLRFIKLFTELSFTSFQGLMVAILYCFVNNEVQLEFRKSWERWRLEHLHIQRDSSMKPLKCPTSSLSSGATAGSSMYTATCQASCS

EC50: 0.19 nM
SMILES: Cc1coc2c(COc3cccc(C4=CCN(Cc5nc6cc(C(=O)Nc7cc(F)c8c(c7)C7(CC7)C(=O)N8)ccc6n5C[C@@H]5CCO5)CC4)n3)ccc(C#N)c12 [US20230271949, Example 351]

— BindingDB's records for patent US20230271949 (Ascletis Bioscience, 2023)
